Assay results from US8962530B2, “Inflammatory bowel disease therapies” (Regents of the University of Colorado, priority 2007, dated 2015).

Key:
TNFα mRNA = assay: TNFα expression in colonic mucosal scrapings by real-time PCR, TNBS-colitis model; assay type: in vivo; conditions: TNBS-colitis mice; 40 mg/kg i.p. on day minus 1, day 0, day 1; day three; compared to non-treated TNBS-colitis mice; p<0.01
Source text: The effectiveness of compounds and methods of the present invention on intestinal barrier protection and treatment of inflammatory bowel disease (IBD) in TNBS (2,4,6-trinitrobenzene sulfonic acid)-induced colitis, an established animal model of inflammatory bowel disease, was examined. TNBS-induced colitis was induced in mice using a modification of techniques previously described. (See Morris et al (1989) Gastroenterology 96:795-803; Boirivant et al (1998) J Exp Med 188:1929-1939; Karhausen et al (2004) J Clin Invest 114:1098-1106.)
Mice were shaved on the abdomen (causing total depletion of hair and microlesions) and were then sensitized to subsequent treatment by epicutaneous application of 1% TNBS (Sigma-Aldrich) in 100% ethanol on day minus 7. Seven days later, on day 0, animals were sedated with a 2.5% Tribromoethanol solution in phosphate-buffered saline (14 μl/g body weight), followed by intrarectal administration of a 2.5% TNBS solution in 50% ethanol (5 μl/g body weight). […]
Amplification cSycle parameters were as follows: 3 minutes at 95° C.; 40 cycles of 45 seconds at 95° C., 30 seconds at 58° C., 30 seconds at 72° C.; followed by repetitive melting cycles to establish amplification product specificity. Comparison of gene expression in a semi-quantitative manner was performed based on the mathematical model of Pfaffl. […]

TNBS-induced colitis = assay: Weight loss in TNBS-colitis model; assay type: in vivo; conditions: TNBS-colitis mice; for initial body weight loss: compared to vehicle-control treated TNBS-colitis animals; for average body weight (of initial body weight) at day 3: vehicle-treated approximately 92%
Source text: The effectiveness of compounds and methods of the present invention on intestinal barrier protection and treatment of inflammatory bowel disease (IBD) in TNBS (2,4,6-trinitrobenzene sulfonic acid)-induced colitis, an established animal model of inflammatory bowel disease, was examined. TNBS-induced colitis was induced in mice using a modification of techniques previously described. (See Morris et al (1989) Gastroenterology 96:795-803; Boirivant et al (1998) J Exp Med 188:1929-1939; Karhausen et al (2004) J Clin Invest 114:1098-1106.) Mice were shaved on the abdomen (causing total depletion of hair and microlesions) and were then sensitized to subsequent treatment by epicutaneous application of 1% TNBS (Sigma-Aldrich) in 100% ethanol on day minus 7. Seven days later, on day 0, animals were sedated with a 2.5% Tribromoethanol solution in phosphate-buffered saline (14 μl/g body weight), followed by intrarectal administration of a 2.5% TNBS solution in 50% ethanol (5 μl/g body weight). Administration of the 2.5% TNBS solution was carried out using an epidural catheter ([…] Plus Epidural Catheter, Arrow International), which was inserted approximately 6 cm ab ano followed by release of the TNBS solution. To ensure the continuance of the TNBS solution in the colon, mice were suspended in a vertical position for at least 5 minutes following administration. Vehicle control animals received a corresponding volume of 50% ethanol solution alone. Unless otherwise indicated, compounds of the invention were administered to animals intraperitoneally (i.p.) as a solution. Animals were dosed with compound (40 mg/kg/day or 20 mg/kg/day) on day minus 1, day 0, and day 1, or exclusively on day 0 and day 1, by i.p. injection. On day 0, TNBS treatment was performed on animals 4 hours after injection of compound. The effect of methods and compounds of the present invention on weight loss associated with inflammatory bowel disease was studied using an established animal model of colitis (described above in Example 1). Monitoring weight loss is a reliable method to assess TNBS-colitis severity in this animal model, as previously described. (See Neurath et al (2000) Int Rev Immunol 19:51-62.) Animals were administered Compound A (20 mg/kg or 40 mg/kg, i.p.) or vehicle control on day minus 1, day 0, and day 1. TNBS-colitis was induced in mice on day 0, as described above in Example 1. Body weight of the mice was monitored following induction of TNBS-colitis. […] Animal body weight was monitored each day for 3 days.

[1] = 20 mg/kg i.p. on day minus 1, day 0, day 1
[2] = 40 mg/kg i.p. on day minus 1, day 0, day 1

O=C(O)CNC(=O)c1ncc2cc(Sc3ccccc3)ccc2c1O [Compound A, [(4-Hydroxy-7-phenylsulfanyl-isoquinoline-3-carbonyl)-amino]-acetic acid]
TNFα mRNA levels in colonic mucosal scrapings (TNFα mRNA): significant decrease | initial body weight loss (TNBS-induced colitis; [1]): reduction in the extent of initial body weight loss | average body weight (of initial body weight) at day 3 (TNBS-induced colitis; [1]): approximately 95% | body weight gain (recovery from weight loss) by day 3 (TNBS-induced colitis; 20 mg/kg or 40 mg/kg i.p. on day minus 1, day 0, day 1, compared to vehicle/control-treated TNBS-colitis animals): greater increase in body weight gain | initial body weight loss (TNBS-induced colitis; [2]): reduction in the extent of initial body weight loss | average body weight (of initial body weight) at day 3 (TNBS-induced colitis; [2]): ~97%
